In paper PMC11032351, “Epigenetic modulation through BET bromodomain inhibitors as a novel therapeutic strategy for progranulin-deficient frontotemporal dementia” (Scientific Reports, 2024):
Where a SMILES comes first, the peptide text is derived from it. [ ]: non-standard residue; d: D form. ξ: configuration not given here. Aoe(9ξ) = N[C@@H](CCCCCC(=O)C1CO1)C(=O)O; dPip = O=C(O)[C@H]1CCCCN1

tested on: PGRN-Luc; assay: HMC3 PGRN-luciferase reporter assay; format: cell-based, human; conditions: HMC3 PGRN-Luc cells, 20 h
Procedure: HMC3 PGRN-Luc cells were trypsinized from confluent T-75 flasks and re-suspended in HMC-3 media at 150,000–200,000 cells/mL. 30 µL of cell suspension was then seeded onto each well of black, 384-well clear-bottom plates (Corning 3712) using the Multidrop Combi (Thermo Fisher). Cells were allowed to adhere to plates in the incubator at 37 °C/5% CO2 for 6–8 h. After 6–8 h, compounds were added to each well using the D300e (Tecan) compound dispenser, and all wells were DMSO-normalized (0.3%). Cells were allowed to incubate with compounds for indicated timeframes.
Plates were removed from the incubator and allowed to cool to RT. 15 µL of media was removed from each well using a multichannel pipette and added to separate Corning 3712 plates for a read of “secreted” PGRN. To both the media-containing plates as well as the cell-containing plates (with 15 µL media remaining) is then added 15 µL of active luminescence reagent (Thermo 18,636) which was generated according to manufacturer’s instructions. Plates were allowed to nutate at RT for 15 min prior to reading using the EnVision (PerkinElmer). For calculation of the internal PGRN-Luc signal, the secreted signal (15 µL media) was subtracted from the signal of the cell-containing plates (with 15 µL media remaining). For “total” PGRN-Luc signal, a sample of media was not aliquoted into a separate plate, and instead, 30 µL of active luminescence reagent was added directly to each well.
For the mivebresib and panobinostat time-course experiment, the above procedure was followed, with the exception that cells were seeded at 66,600 cells/mL in 30 µL media, and allowed to grow overnight prior to compound addition for the indicated timeframes.

Molecule	enhancement of secreted PGRN-Luc signal	enhancement of internal PGRN-Luc signal
CC(=O)Nc1ccc(C(=O)Nc2ccccc2N)cc1 [CI-994]	either weakly or entirely unable to enhance secreted PGRN	
O=C(CCCCC[C@@H]1NC(=O)[C@H]2CCCCN2C(=O)[C@H](Cc2ccccc2)NC(=O)[C@H](Cc2ccccc2)NC1=O)C1CO1 (stereo partly shown) [trapoxin A] (cyclo(FF[dPip][Aoe(9ξ)]))	able to enhance both internal and secreted PGRN at sub-µM concentrations	able to enhance both internal and secreted PGRN at sub-µM concentrations
CC(/C=C/C(=O)NO)=C\[C@@H](C)C(=O)c1ccc(N(C)C)cc1 [trichostatin A]	able to enhance both internal and secreted PGRN at sub-µM concentrations	able to enhance both internal and secreted PGRN at sub-µM concentrations

tested on: PGRN protein levels; assay: PGRN quantification (Jess) in human NPCs; format: cell-based; conditions: 100 nM, 24 h
Procedure: PGRN capillary gel electrophoresis experiments were performed using Jess (Bio-Techne) and data were processed and analyzed using Compass for Simple Western software (version 6.0). Runs were conducted using EZ Standard Pack 1 12-230 kDa (Bio-Techne PS-ST01EZ-8), 12-230 kDa pre-filled plates (PS-PP03), 12-230 kDa separation module (SMW004), anti-rabbit HRP detection ([…]-001), and total protein detection modules (DM-TP01, biotin labeling reagent 042-973) according to the manufacturer's instructions, and with anti-PGRN primary (Abcam ab208777) diluted 1:50 in milk-free antibody dilution buffer (043-524). […] All intensity quantifications are normalized to the total protein assay quantification unless otherwise indicated. NPCs were cultured normally in 6-well plates as described previously. Upon reaching confluency, DMSO or MLN-4924 (Cayman #15,217, 10 mM stock in DMSO) were diluted 1:5000 into NPC media with growth factors. 1 mL of media was aspirated from the cell cultures, and 1 mL of MLN-4924 or DMSO dilutions were then added to respective wells (final well concentration: 1 μM MLN-4924 in select wells, 0.01% DMSO for all wells). Plates returned to the incubator. […] Plates returned to the incubator. After 4 h, to the indicated wells is directly added 1 μL 2 mM mivebresib (MedChem Express HY-100015) in DMSO for a final concentration of 1 μM, or 1 μL DMSO. All plates were returned to the incubator overnight. The next day, 24 h from the addition of mivebresib, plates were removed from the incubator, and all wells were washed with 2 mL PBS, and then lysed in 300 μL M-PER lysis buffer with protease inhibitors. Cells were allowed to lyse for 15 min at 4 °C with light nutation, and then lysate was transferred to a 1.5-mL Eppendorf tube which was then spun down at 20 k rcf at 4 °C for 10 min. 200 μL of supernatant was then transferred to a fresh, labeled Eppendorf rube, which was then stored at - 20 °C prior to further analysis. Sample concentration was quantified using the BCA assay as described above, and normalized to 250 μg/mL in M-PER lysis buffer prior to PGRN quantification using the Jess. NPCs were cultured normally as described previously. 6-well plates were seeded at 300,000 cells/well in 2 mL of NPC media with EGF, bFGF, and heparin as described above. Cells were allowed to grow to confluency for three nights at 37 °C with 5% CO2. […] These solutions were then diluted 1:10 in NPC media with growth factors containing 0.2% DMSO to make 100 nM compound solutions. Treatment wells were washed with 2 mL PBS prior to addition of 2 mL NPC media with growth factors containing compound (or DMSO only) at indicated concentrations (3 replicates per condition, 6 DMSO replicates). Plates were then allowed to incubate at 37 °C with 5% CO2 for 24 h. After 24 h, cells were removed from the incubator, washed with 1 mL PBS, and then lysed with 500 μL M-PER lysis buffer (Thermo Fisher #78,501) with 1 cOmplete Mini, EDTA-free protease inhibitor added (Sigma-Aldrich#11,836,170,001) per 15 mL lysis buffer. Plates were allowed to nutate at 4 °C for 15 min before transferring the lysate to 1.5 mL Eppendorf tubes, which were then spun down at 20,000 rcf at 4 °C for 10 min. 400 μL of the supernatant was then transferred to fresh 1.5-mL Eppendorf tubes, which were then frozen down at - 80 °C prior to further use. Samples were removed from the - 80 °C and concentrations were determined via BCA assay (Thermo Scientific #23,227) using a pre-diluted BSA standard (Life Technologies #23,208) on a 96-well polystyrene plate (Thermo Fisher #12,565,500). Samples were diluted to 0.25 mg/mL using M-PER lysis buffer prior to PGRN quantification using the Jess. NPCs were cultured as described above, and seeded onto coated 24-well plates at 150,000 cells/well in 1 mL NPC media with growth factors. Plates were allowed to grow to ~ 100% confluency for three nights at 37 °C with 5% CO2. […] Plates were allowed to incubate overnight at 37 °C with 5% CO2 for 24 h. […]

Molecule	enhancement of PGRN protein levels
COCc1nc2cnc3cc(-c4c(C)noc4C)c(OC[C@H]4CCNC4)cc3c2n1[C@H](C)c1ccccc1 [iBET-BD1]	unable to enhance PGRN protein levels
CCNC(=O)c1cc2c(-c3cc(C(C)(C)O)ccc3Oc3c(C)cc(F)cc3C)cn(C)c(=O)c2[nH]1 [ABBV-744]	~ 30%

same assay, conditions: 24 h, various doses

Molecule	PGRN protein levels, dose-response
CCNC(=O)c1cc2c(-c3cc(C(C)(C)O)ccc3Oc3c(C)cc(F)cc3C)cn(C)c(=O)c2[nH]1 [ABBV-744]	mid to high nM concentrations were sufficient to enhance PGRN protein levels

tested on: GRN mRNA; assay: qPCR of GRN mRNA in human NPCs (enhancer screen and follow-up); format: cell-based; conditions: human NPCs, 24 h, dose 1 µM, relative to DMSO
Procedure: All compounds were purchased from commercial vendors. All compounds were made at 1000 × stocks in DMSO (Sigma Aldrich #D2438), except for sodium valproate, which was dissolved in ddH2O. NPCs and neurons were generated and maintained as described above. For treatment, the stock compounds were diluted 1:1000 in NPC media (final DMSO concentration 0.1%), which was then applied to confluent NPCs or 18-day differentiated neurons derived from confluent NPC cultures for indicated time periods.
RNA was generated from each well of a 6-well treated plate of NPCs or neurons. First, media from each well was aspirated, and washed with 1 mL of dPBS. Wells were then lysed with 1 mL TRIzol Reagent (ThermoFisher #11,596,026). Wells were then incubated at room temperature for 5 min, and then RNA was extracted using the DirectZol RNA MiniPrep Kit (Zymo Research #R2052). RNA was stored at − 80 °C until further use. cDNA was generated using the High-Capacity cDNA synthesis Kit with RNase inhibitor (ThermoFisher #4,368,814) using 1000–1200 ng RNA per reaction. cDNA was either used immediately or stored at -20 °C until use, where it was then diluted 1:4 with DNase/RNase-free water (Invitrogen #10,977–015).
qPCR was conducted using the Roche 480 Light Cycler in a 384-well plate. To each well was added 5 μL of TaqMan 2X Gene Expression Master Mix (ThermoFisher #4,369,510), 0.5 μL of 20X TaqMan primer probe (ThermoFisher, GRN: Hs00963707_g1, GAPDH: Cat.#432924E), 0.5 μL of DNase/RNase-free H2O, and 4 μL of above diluted cDNA. Results were normalized to GAPDH, and replicate mean values and standard error of the mean are reported.

Molecule	GRN Fold-change (Norm. to GAPDH) ± Std. Error
CCn1cc(-c2ccnc3[nH]c(-c4cccc(CN(C)C)c4)cc23)c(-c2ccc(NC(=O)N(C)C)cc2)n1 [GSK1070916]	1.45 ± 0
COc1cc2nc(N3CCCN(C)CC3)nc(NC3CCN(Cc4ccccc4)CC3)c2cc1OC [BIX01294]	0.80 ± 0.04
CN(C)Cc1c(C(=O)NCCOc2ccc(C(=O)NO)cc2)oc2ccccc12 [PCI-24781]	3.68 ± 0.27

same assay, conditions: human NPCs, 24 h, dose 10 µM, relative to DMSO

Molecule	GRN Fold-change (Norm. to GAPDH) ± Std. Error
(-)-Eseroline fumarate	1.10 ± 0
O=C(NC1CC1)c1cc(-c2cccs2)on1 [Compound Z220650400]	1.17 ± 0.10
N#CC[C@H](C1CCCC1)n1cc(-c2ncnc3[nH]ccc23)cn1 [Ruxolitinib]	1.26 ± 0.04
CCOC(=O)CCNc1cc(N2CCc3ccccc3CC2)nc(-c2ccccn2)n1 [GSK-J4]	0.76 ± 0.03
O=C(CCCCCCNC(=O)c1cnc(N(c2ccccc2)c2ccccc2)nc1)NO [ACY-1215]	3.63 ± 0.57
Cc1c[nH]c(-c2cnc(NCCNc3ccc(C#N)cn3)nc2-c2ccc(Cl)cc2Cl)n1 [CHIR-99021]	0.79 ± 0.06
O=C(Nc1c(Cl)cncc1Cl)c1ccc(OC(F)F)c(OCC2CC2)c1 [Roflumilast]	1.01 ± 0.09
NNCCc1ccc(NC(=O)CCCc2ccccc2)cc1 [Bizine]	0.92 ± 0.12
CCOC(=O)Nc1cc(-c2ccc(C)c(NS(C)(=O)=O)c2)nn2c(C)nnc12 [Bromosporine, bromosporine]	3.44 ± 0.25
COC1CCC(C(=O)c2ccc3nc4c(cc3c2)CCCO4)CC1 (stereo not shown) [JNJ16259685]	1.00 ± 0.10
Cn1cc(-c2ccncc2)c(-c2ccc(OCc3ccc4ccccc4n3)cc2)n1 [PF-2545920]	1.29 ± 0.16
c1ccc([C@@H]2C[C@H]2NC2CCNCC2)cc1 [GSK-LSD1]	0.96 ± 0.11
Cc1cc(C)c(CNC(=O)c2cc(-c3ccc(CN4CCOCC4)cc3)cc3c2cnn3C2CCCC2)c(=O)[nH]1 [EPZ005687]	1.18 ± 0.10
Cc1c(OCC(F)(F)F)ccnc1C[S+]([O-])c1nc2ccccc2[nH]1 (stereo not shown) [Lanosoprazole]	1.37 ± 0.23

same assay, conditions: human NPCs, 24 h, dose 10 µM, relative to DMSO; listed as bromosporine

Molecule	GRN Fold-change (Norm. to GAPDH) ± Std. Error
CCOC(=O)Nc1cc(-c2ccc(C)c(NS(C)(=O)=O)c2)nn2c(C)nnc12 [Bromosporine, bromosporine]	active enhancers of GRN mRNA

same assay, conditions: human NPCs, 24 h, dose 25 µM, relative to DMSO

Molecule	GRN Fold-change (Norm. to GAPDH) ± Std. Error
(-)-Eseroline fumarate	0.79 ± 0.46
CNC(=O)Oc1ccc2c(c1)[C@]1(C)CCN(C)[C@@H]1N2C [Eserine]	0.73 ± 0.15
